{"source": "patent US20210395679A1", "about": "“IN VITRO CELL CULTURE SYSTEM FOR PRODUCING HEPATOCYTE-LIKE CELLS AND USES THEREOF” (CHILDREN'S HOSPITAL MEDICAL CENTER, priority 2018, published 2021)", "target": "T1, MRP4 (Homo sapiens, UniProt O15439)", "T1 sequence (O15439 1-1325)": "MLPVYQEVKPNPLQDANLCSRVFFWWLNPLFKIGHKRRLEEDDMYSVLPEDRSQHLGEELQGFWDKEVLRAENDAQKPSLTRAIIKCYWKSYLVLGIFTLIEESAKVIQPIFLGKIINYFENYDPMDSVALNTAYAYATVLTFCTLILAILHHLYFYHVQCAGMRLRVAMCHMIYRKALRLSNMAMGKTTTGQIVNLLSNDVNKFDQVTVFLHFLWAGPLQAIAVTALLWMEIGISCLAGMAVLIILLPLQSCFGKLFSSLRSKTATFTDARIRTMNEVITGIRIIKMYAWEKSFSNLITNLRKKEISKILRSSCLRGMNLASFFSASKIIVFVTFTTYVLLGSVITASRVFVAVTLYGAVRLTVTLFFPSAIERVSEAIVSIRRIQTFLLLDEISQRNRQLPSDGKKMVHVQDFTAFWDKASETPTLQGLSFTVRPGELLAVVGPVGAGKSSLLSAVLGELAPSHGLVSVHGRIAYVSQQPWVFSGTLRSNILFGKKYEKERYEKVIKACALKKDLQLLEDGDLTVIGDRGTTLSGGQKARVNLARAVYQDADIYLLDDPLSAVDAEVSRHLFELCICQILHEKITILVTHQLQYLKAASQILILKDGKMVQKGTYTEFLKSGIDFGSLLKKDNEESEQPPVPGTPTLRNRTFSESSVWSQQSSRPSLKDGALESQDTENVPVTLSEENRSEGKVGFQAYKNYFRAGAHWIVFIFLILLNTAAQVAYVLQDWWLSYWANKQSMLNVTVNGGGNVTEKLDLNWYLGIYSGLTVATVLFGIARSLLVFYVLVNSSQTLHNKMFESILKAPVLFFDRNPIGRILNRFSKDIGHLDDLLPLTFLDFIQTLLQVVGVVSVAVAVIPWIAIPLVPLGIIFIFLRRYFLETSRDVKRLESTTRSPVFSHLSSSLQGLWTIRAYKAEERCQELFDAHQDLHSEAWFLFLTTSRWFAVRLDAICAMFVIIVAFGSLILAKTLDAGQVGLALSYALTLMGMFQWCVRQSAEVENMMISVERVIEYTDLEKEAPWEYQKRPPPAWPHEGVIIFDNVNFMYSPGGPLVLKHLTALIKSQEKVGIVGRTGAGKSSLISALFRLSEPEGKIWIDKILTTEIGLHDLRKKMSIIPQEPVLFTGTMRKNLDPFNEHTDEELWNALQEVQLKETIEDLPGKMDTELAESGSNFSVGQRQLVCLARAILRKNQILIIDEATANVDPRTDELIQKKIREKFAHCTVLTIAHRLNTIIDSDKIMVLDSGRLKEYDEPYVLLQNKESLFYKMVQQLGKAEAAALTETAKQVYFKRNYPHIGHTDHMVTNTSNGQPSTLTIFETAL", "assay": "Wash-out assay of intracellular-to-basolateral D4-TCA export with or without MRP4 inhibitor", "conditions": "normal i-Hep, 1 h D4-TCA 10 μM in the lower chamber, fresh medium with or without inhibitor"}
{"smiles": "Cn1c(CSc2nc3ccccc3s2)n[nH]c1=S", "note": "[Ceefourin1]", "values": [{"measurement": "basolateral export of D4-TCA towards the lower chamber", "result": "did not alter the basolateral export"}]}
